In the METLIN SMRT retention time set (Domingo-Almenara et al. 2019):

Assay: gradient 5% acetonitrile 3 min, to 50% in 2 min, to 85% in 15 min, held 3 min, 100 µL/min
Settings: column: Zorbax Extend-C18 2.1 x 50 mm; eluents: water / acetonitrile, 0.1% formic acid
Summary of the method: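 Pure standards were analyzed in mixtures of ~100 molecules using HPLC coupled to a quadrupole time-of-flight mass spectrometer, in both positive and negative ionization mode. Separation used a Zorbax Extend-C18 column (2.1 × 50 mm, 1.8 μm) at 100 μL/min, with water and acetonitrile each containing 0.1% formic acid. Dead and dwell volumes were 40 μL and 900 μL, and data were collected over 3 months. Retention time was read from computationally picked adduct peaks, each inspected manually.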

SMILES | RP-LC retention time [s]
O=C(c1ccc2c(c1)CCN2C(=O)C1CCC1)N1CCCC1 | 589
CCC1(C(=O)Nc2ccc(C)cc2)CCCCC(=O)N1 (stereo unspecified) | 736
Cc1ccc(CN2CC(F)(F)C[C@H]2c2nnc(-c3cnccn3)o2)c(C)c1 | 990
CCOc1cc(=O)n2c(c1C(=O)NC1CC1)CCCCC2 | 611
O=C(NC1CC1)c1ccc(OCC2CCCN(C(=O)c3ccc(F)c(F)c3)C2)cc1 (stereo unspecified) | 820
O=C(c1cccc(N2CCNC(c3ccccc3)C2)n1)N1CCCCC1 (stereo unspecified) | 615
Cn1c(=O)c2cc(C(=O)NCc3ccccc3C(F)(F)F)nn2c2ccccc21 | 940
CCn1c(=O)c(N2CCN(C(=O)Nc3ccc(Br)cc3F)CC2)nc2ccccc21 | 1030
Cc1cc(C)n2c(Nc3ccc(Cl)cc3)c(-c3ccc(O)cc3)nc2n1 | 707
CCn1cc(CN2CCC(C(=O)NC3CCCCCC3)CC2)c2cc(OC)ccc21 | 741
Oc1ccc(-c2nc3ccc(Cl)cn3c2Nc2ccc(Cl)cc2)cc1 | 733
CCCN(C)C(=O)CCC1CCN(c2cc(NC3CC3)ncn2)CC1 | 648
CCC(C)(C)NC(=O)C1CCN(S(=O)(=O)c2c(C)[nH]c(C)c2C(=O)N2CCCCC2)CC1 | 746
O=C(c1ccncc1)N1CCCn2nc(-c3ccc(Cl)cc3)cc2C1 | 719
CCOc1nccnc1N1CCC(N(C)C(=O)c2ccc(C)nc2)C1 (stereo unspecified) | 597
CSc1ccccc1-c1nnc(NC(=O)C(c2ccccc2)c2ccccc2)o1 | 895
Cc1ccc(F)c(NC(=O)Cn2cc(-c3nnc(C)o3)ccc2=O)c1 | 805
O=C(NCC(c1ccc2c(c1)OCO2)N1CCN(c2ccccc2F)CC1)c1cnccn1 (stereo unspecified) | 593
CN1CCN(c2ccc(Nc3cc(-c4cccc(-n5ccc6cc(C7CC7)cc(F)c6c5=O)c4CO)cn(C)c3=O)nc2)CC1 | 702
Cc1cc(-c2nnc(-c3ccccc3)o2)c(C)n1CC(=O)NCc1cccs1 | 900
CCc1nc2c(NC(=O)c3ccccc3C(F)(F)F)cccn2n1 | 866
CSc1ccc(-c2nc3cnccn3c2Nc2cccc(C(=O)NC(C)C)c2)cc1 | 784
O=C(NCCc1csc(C2CCN(C(=O)C3CCCCC3)CC2)n1)C1CCC1 | 720

SMILES | RP-LC retention time [s]
O=C(CC1CCN(C(=O)Nc2ccccc2F)CC1)N1CCCCC1 | 709
Cc1ccc(NC(=O)Cn2cc3c(n2)CCC(C)C3)cc1C (stereo unspecified) | 969
COc1ccc2c(=O)c(Oc3ccc(C(=O)Nc4nccs4)cc3)c(C)oc2c1 | 788
Cc1ccccc1OCc1nc(CCN(C)C(=O)Cc2cccs2)no1 | 924
CCn1cc(-c2ccc(F)cc2)cc1C(=O)N1CCOCC1 | 869
C=CCN1CCN(C(=O)C2CCN(c3cc(Nc4ccc(C)cc4)ncn3)CC2)CC1 | 572
Cc1cccc(C)c1NC(=O)Cn1cnc2c(sc3nc(-c4ccccc4)ccc32)c1=O | 972
Cc1cc(=O)n(CC(=O)Nc2ccc(F)c(F)c2)cn1 | 620
CCn1c(C2CCN(C(=O)c3ccc(C(F)(F)F)s3)C2)nc2cccnc21 (stereo unspecified) | 782
CCc1nc(-c2csc(S(=O)(=O)N3CCCC(C(=O)Nc4ccc(C)cc4C)C3)c2)no1 (stereo unspecified) | 1070
COc1ccc(CC(=O)Nc2ccc(Nc3cc(OC)nc(C)n3)cc2)cc1 | 617
CC1CCCN(c2ccn3c(=O)n(CC(=O)Nc4cc(F)cc(F)c4)nc3n2)C1 (stereo unspecified) | 849
CCN1CCN(CCNC(=O)c2sc3ncccc3c2-n2c(C)ccc2C)CC1 | 574
Cc1ncc2c(n1)C[C@@H]1CC[C@H]2N1S(=O)(=O)c1ccccc1 | 695
CC(C(=O)NCc1ccccc1F)n1c(=O)c(C(F)(F)F)nc2ccccc21 (stereo unspecified) | 1020
COc1ccc(C2Cn3nnc(-c4nc(-c5cccc(Cl)c5)no4)c3CO2)cc1 (stereo unspecified) | 1250
Cc1cc2ncn(CC3CCN(C(=O)c4ccsc4)CC3)c2cc1C | 583
O=C(Nc1ccccc1-c1nc2ccccc2[nH]1)C1CC1 | 623
Cc1ccc(C)c(CN2CCC(CNC(=O)C3CCN(c4cc(=O)n(C)c(=O)n4C)CC3)CC2)c1 | 618
CCS(=O)(=O)NCc1ccc2c(c1)CCN2C(=O)CC(C)C | 794
CCOC(=O)CSc1nc2c(sc3ccccc32)c(=O)n1CCc1c[nH]c2ccccc12 | 1220
Cc1nn(CCC(=O)NCCc2ccco2)c(=O)c2nn(-c3ccccc3)c(C)c12 | 726

Next, values leading:

RP-LC retention time [s] | SMILES
870 | CCS(=O)(=O)N1CCCc2cc(C(=O)NC(C)c3ccccc3)ccc21 (stereo unspecified)
761 | COc1ccc(-c2csc(Nc3ccccn3)n2)cc1OC
868 | CCc1ccc(N2C(=O)CN(S(=O)(=O)CC)CC2(C)C(=O)NCc2ccccc2)cc1 (stereo unspecified)
796 | CCNC(=O)C1CCN(S(=O)(=O)c2ccc(OCC)c(C)c2)CC1
869 | Cn1cc(-c2cc3n(n2)CCCN3C(=O)CCC(=O)NC2CCCCCC2)c2ccccc21
776 | O=C(NCCc1csc(-c2ccccc2)n1)C1CCN(S(=O)(=O)c2cccs2)CC1
820 | COc1ccc(C(=O)N2CCC3(CC2)N=C(c2ccc(Br)cc2)NO3)cc1OC
593 | Cn1cc(CCNC(=O)NCc2ccco2)c2cccnc21
596 | COc1cc2c(cc1OC)C(C(=O)N1CCC(C(N)=O)CC1)C(c1cccs1)N(C)C2=O (stereo unspecified)
912 | Cc1noc(C)c1-c1ccc(S(=O)(=O)Nc2ccccc2)cc1
1110 | Cc1ccc(CNC(=O)Cn2nc(N3CCCC(C)C3)c3ccccc3c2=O)cc1 (stereo unspecified)
977 | Cc1ccc(C)c(NC(=O)Cn2cccc2-c2nnc(C3CCC3)o2)c1
705 | COc1ccc(C(=O)NC(CC(C)C)C(=O)Nc2nc3ccccc3[nH]2)cc1OC (stereo unspecified)
647 | Cn1c(=O)c2c(ncn2CC(=O)N2CCCn3nc(-c4ccccc4)cc3C2)n(C)c1=O
955 | CCS(=O)(=O)N1CC(=O)N(c2cc(Cl)ccc2C)C(C)(C(=O)NC2CCCCC2)C1 (stereo unspecified)
1070 | O=C(CN1C(=O)C(C(=O)N2CCCC2)Sc2ccccc21)Nc1ccc(Cl)cc1 (stereo unspecified)
939 | COC(=O)c1cc(S(=O)(=O)N2CCCC2C(=O)NCc2ccc(C)cc2)cn1C (stereo unspecified)
654 | COc1ccccc1OCCNS(=O)(=O)c1cc2n(c1)CCCNC2=O
995 | CC(=O)N1CCc2sc(S(=O)(=O)N3CCN(c4ccccc4C)CC3)cc2C1
898 | COc1ccc2cc(C(=O)Nc3ccccc3)[nH]c2c1
749 | O=C1CCCc2cc(S(=O)(=O)N3CCC(C(=O)Nc4ccc(F)cc4)CC3)ccc2N1
